Assay results as given in patent US8951972B2, “FGFR1 extracellular domain combination therapies for lung cancer” (Five Prime Therapeutics, Inc., priority 2010, dated 2015).

Legend:
[1] = test system: A549 Non-Small Cell Lung Cancer (NSCLC) Xenograft; assay: A549 non-small cell lung cancer (NSCLC) xenograft model, tumor volume; type: in vivo, SCID mice; details: day 28; FGFR1-ECD.339-Fc 15 mg/kg and carboplatin 25 mg/kg i.p. 2x/wk from day 7 x 3 wks; paclitaxel 30 mg/kg i.p. 2x/wk from day 8 x 3 wks
[2] = test system: H1703 Non-Small Cell Lung Cancer (NSCLC) Xenograft; assay: H1703 non-small cell lung cancer (NSCLC) xenograft model, tumor volume; type: in vivo, SCID mice; details: day 38; FGFR1-ECD.339-Fc 15 mg/kg i.p. 2x/wk; docetaxel 25 mg/kg i.p. 1x/3 wk x 2 doses
Method: Human non-small cell lung cancer (NSCLC) cell line H1703 was used as the tumor model and was purchased from ATCC (Manassas, Va.; Cat. No. CRL-5889).
Docetaxel was purchased from Toronto Research Chemicals (North York, Ontario, Canada; cat. No. D494420) and formulated in H2O containing 5% Tween 80 and 5% glucose. Docetaxel was administered i.p. at 25 mg/kg (equivalent to about 75 mg/m^2 in a human) once every three weeks for two doses. In combination groups, FGFR1-ECD.339-Fc and docetaxel were either given concurrently or sequentially with FGFR1-ECD.339-Fc given one day before docetaxel or vice versa. Human albumin was purchased from Grifols USA (Los Angeles, Calif.; Cat. No. NDC 61953-0002-1), formulated in PBS at 3 mg/mL and was used as negative control at 300 μg/100 μL/mouse (15 mg/kg).
The tumor volume was measured by external caliper to determine the greatest longitudinal diameter (length) and the greatest transverse diameter (width). The tumor volume was then calculated using the following formula: Tumor volume (mm^3)=(length×width^2)/2

[3] = test system: JIMT-1 Breast Cancer Xenograft; assay: JIMT-1 breast cancer xenograft model, tumor volume; details: Day 21; FGFR1-ECD.339-Fc 15 mg/kg i.p. 2x/wk; doxorubicin 0.5 mg/kg 1x/wk; paclitaxel 30 mg/kg 2x/wk; each x 5 wks from day 7
Method: Six week old female SCID mice were purchased from Charles River Laboratories (Wilmington, Mass.) and were acclimated for 1 week before the start of the study. […] The cells were cultured for ten passages in DMEM+10% FBS, 1% L-glutamine, and 1% penicillin/streptomycin at 37° C. in a humidified atmosphere with 5% CO2. When the cultured cells reached 85-90% confluence, cells were harvested and resuspended in cold Ca^2+ and Mg^2+ free phosphate buffered saline (PBS) containing 50% Matrigel at 5×10^7 cells per milliliter. The cells were implanted subcutaneously over the right flank of the mice at 5×10^6 cells/100 μl/mouse. One day after tumor implantation, mice were randomized according to body weight at 10 mice per group.
FGFR1-ECD.339-Fc was formulated in 0.9% Saline for Injection USP at 3 mg/ml and administered intraperitoneally (i.p.) at 15 mg/kg (300 μg/100 μl/mouse) twice per week for five weeks beginning on day 7. […] Paclitaxel was administered at 30 mg/kg (60 μg/200 μL per mouse) twice per week for five weeks beginning on day 7.
The tumor volume and body weight of the mice were monitored twice a week throughout the study.
Mice were euthanized on day 42 by isoflurane inhalation and cervical dislocation.

[4] = test system: Colo205 Colon Cancer Xenograft; assay: Colo205 colon cancer xenograft model, tumor volume; type: in vivo, SCID mice; details: day 17; FGFR1-ECD.339-Fc 15 mg/kg i.p. 2x/wk x 4 wks; 5-FU and leucovorin 10 mg/kg each i.p. daily x 5 days; oxaliplatin 15 mg/kg twice per week

Substance: FGFR1-ECD.339-Fc: human FGFR1 extracellular domain ending at amino acid 339 fused to an Fc; SEQ ID NO: 6 (mature form)
- Fractional tumor volume (FTV), each treatment alone [1]: 0.58
- Fractional tumor volume (FTV), each treatment alone [2]: 0.68
- Mean Tumor volume mm^3(±SD) [2]: 557 (±151) mm^3
- Tumor growth inhibition (%) [2]: 33%
- Fractional tumor volume (FTV), each treatment alone [3]: 0.93
- Fractional tumor volume (FTV), each treatment alone [4]: 0.77
